The source of these data is patent US9840478B2 (MERCK SHARP & DOHME CORP., priority 2013, dated 2017).

The structures appear in SMILES notation.

This test relates to HIV-1 (H9IIIB strain). The test is described as follows: Cell-based HIV infection assay using a reporter (Cell-Based), MT4-GFP cells. As to conditions: Human immunodeficiency virus 1, MT4-GFP cells infected with HIV-1 H9IIIB; 50% normal human serum; mean of at least two independent experiments; read-out: Cell-based IP. The essentials: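 IC50 from 4-parameter dose-response of % viral growth inhibition, using the 48 h/24 h infected-cell ratio scaled between DMSO and a protease/integrase/NNRTI triple-drug control. Assay used MT4 cells with HIV-LTR-GFP reporter, pre-infected 24 h with HIV-1 H9IIIB, in 50% normal human serum.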
Take `COC(=O)N[C@H](C(=O)Nc1cncc(F)c1CC[C@H]1CNC[C@H](C)N1S(=O)(=O)C1CC1)[C@@H](c1ccc(F)cc1)c1cc(F)cc(F)c1` [Example 210, (βS)-N-(4-{2-[(2S,6S)-1-(cyclopropylsulfonyl)-6-methylpiperazin-2-yl]ethyl}-5-fluoropyridin-3-yl)-β-(3,5-difluorophenyl)-4-fluoro-Nα-(methoxycarbonyl)-L-phenylalaninamide]: the IC50 was determined as 13 nM.

With `CC(C)[C@H](c1ccc(Cl)cc1)[C@H](N)C(=O)Nc1cccc(F)c1CC[C@H]1CNC[C@@H](C)N1S(=O)(=O)C1CC1` [Example 128, (βR)-4-chloro-N-(2-{2-[(2S,6R)-1-(cyclopropylsulfonyl)-6-methylpiperazin-2-yl]ethyl}-3-fluorophenyl)-β-(1-methylethyl)-L-phenylalaninamide], the IC50 was 610 nM.

As for `COC(=O)N[C@H](C(=O)Nc1cccc(F)c1CC[C@H]1CNCCN1S(=O)(=O)c1ccccc1)C(c1cc(F)cc(F)c1)c1cc(F)cc(F)c1` [Example 51, β-(3,5-difluorophenyl)-3,5-difluoro-N-(3-fluoro-2-{2-[(2S)-1-(phenylsulfonyl)piperazin-2yl]ethyl}phenyl)-Nα-(methoxycarbonyl)-L-phenylalaninamide], the IC50 was 11 nM.

`N[C@H](C(=O)Nc1cccc(F)c1CC[C@H]1CNCCN1S(=O)(=O)c1ccccc1)C(c1ccc(F)cc1)c1ccc(F)cc1` [Example 32, (S)-2-amino-N-(3-fluoro-2-(2-((S)-1-(phenylsulfonyl)piperazin-2-yl)ethyl)phenyl)-3,3-bis(4-fluorophenyl) propanamide]: the IC50 came out at 6.6 nM.

On to `CC(C)[C@H](c1cccc(Cl)c1)[C@H](N)C(=O)Nc1cccc(F)c1CC[C@H]1CNC[C@H](C)N1S(=O)(=O)c1ccccc1` [Example 207, (βR)-3-chloro-N-(3-fluoro-2-{2-[(2S,6S)-6-methyl-1-(phenylsulfonyl)piperazin-2-yl]ethyl}phenyl)-β-(1-methylethyl)-L-phenylalaninamide], for which the IC50 is 760 nM.

In the case of `COC(=O)N[C@H](C(=O)Nc1cccc(F)c1CC[C@H]1CNC[C@H](C)N1S(=O)(=O)c1ccccc1)[C@H](c1cncc(F)c1)c1cccc(Cl)c1` [Example 253, (βS)-3-chloro-N-(3-fluoro-2-{2-[(2S,6S)-6-methyl-1-(phenylsulfonyl)piperazin-2-yl]ethyl}phenyl)-β-(5-fluoropyridin-3-yl)-Nα-(methoxycarbonyl)-L-phenylalaninamide], the IC50 was 24 nM.

With `COC(=O)N[C@H](C(=O)N[C@H]1CCCC[C@@H]1CC[C@H]1CNCCN1S(=O)(=O)c1ccccc1)[C@@H](c1ccc(Cl)cc1)C1CCOCC1` [Example 355, methyl ((1R,2S)-1-(4-chlorophenyl)-3-oxo-3-(((1S,2R)-2-(2-((S)-1-(phenylsulfonyl)piperazin-2-yl)ethyl)cyclohexyl)amino)-1-(tetrahydro-2H-pyran-4-yl)propan-2-yl)carbamate], the IC50 worked out at 14 nM.

In the case of `COC(=O)N[C@H](C(=O)Nc1cccc(F)c1CC[C@H]1CNC[C@H](C)N1S(C)(=O)=O)[C@@H](Cc1ccc(F)cc1)c1ccc(Cl)cc1` [Example 233, (βS)-4-chloro-β-(4-fluorobenzyl)-N-(3-fluoro-2-{2-[(2S,6S)-6-methyl-1-(methylsulfonyl)piperazin-2-yl]ethyl}phenyl)-Nα-(methoxycarbonyl)-L-phenylalaninamide], the IC50 stood at 330 nM.

Regarding `COC(=O)N[C@H](C(=O)Nc1cccc(F)c1CC[C@H]1CNC[C@H](C)N1S(=O)(=O)c1ccccc1)[C@@H](c1cc(F)cc(F)c1)C1CCOCC1` [Example 296, (βR)-3,5-difluoro-N-(3-fluoro-2-{2-[(2S,6S)-6-methyl-1-(phenylsulfonyl)piperazin-2-yl]ethyl}phenyl)-Nα-(methoxycarbonyl)-β-(tetrahydro-2H-pyran-4-yl)-L-phenylalaninamide], the IC50 stood at 9.9 nM.

Consider `C[C@H]1CNC[C@H](CCc2c(F)cccc2NC(=O)[C@@H](N)C(c2cccc(F)c2)c2cccc(F)c2)N1S(C)(=O)=O` [Example 170, 3-fluoro-N-(3-fluoro-2-{2-[(2S,6S)-6-methyl-1-(methylsulfonyl)piperazin-2-yl]ethyl}phenyl)-β-(3-fluorophenyl)-L-phenylalaninamide], for which the IC50 was 60 nM.

Take `COC(=O)N[C@H](C(=O)Nc1cccc(F)c1CC[C@H]1CNC[C@H](C)N1S(=O)(=O)c1ccccc1OC)[C@@H](c1ccc(F)cc1)c1cc(F)cc(F)c1` [Example 240, (βS)-β-(3,5-difluorophenyl)-4-fluoro-N-[3-fluoro-2-(2-{(2S,6S)-1-[(2-methoxyphenyl)sulfonyl]-6-methylpiperazin-2-yl}ethyl)phenyl]-Nα-(methoxycarbonyl)-L-phenylalaninamide]: the IC50 turned out to be 71 nM.

Take `COC(=O)N[C@H](C(=O)Nc1cncc(F)c1CC[C@H]1CNC[C@@H](C)N1S(=O)(=O)c1ccc(OC(F)(F)F)cc1)[C@@H](c1ccc(F)cc1)c1cc(F)cc(F)c1` [Example 247, (βS)-β-(3,5-difluorophenyl)-4-fluoro-N-(5-fluoro-4-{2-[(2S,6R)-6-methyl-1-{[4-(trifluoromethoxy)phenyl]sulfonyl}piperazin-2-yl]ethyl}pyridin-3-yl)-Nα-(methoxycarbonyl)-L-phenylalaninamide]: the IC50 was determined as 77 nM.

`C[C@@H]1CNC[C@H](CCc2c(F)cncc2NC(=O)[C@@H](N)[C@@H](c2ccc(Cl)cc2)C2CCOCC2)N1S(C)(=O)=O` [Example 182, (βR)-4-chloro-N-(5-fluoro-4-{2-[(2S,6R)-6-methyl-1-(methylsulfonyl)piperazin-2-yl]ethyl}pyridin-3-yl)-β-(tetrahydro-2H-pyran-4-yl)-L-phenylalaninamide]: the IC50 amounted to 130 nM.

As to `COC(=O)N[C@H](C(=O)Nc1cccc(F)c1CC[C@H]1CNCCN1S(=O)(=O)c1ccccc1)[C@@H](c1ccc(Cl)cc1)C1CCOC(C)(C)C1` (stereo partly drawn) [Example 76, (βR)-4-chloro-β-(2,2-dimethyltetrahydro-2H-pyran-4-yl)-N-(3-fluoro-2-{2-[(2S)-1-(phenylsulfonyl)piperazin-2-yl]ethyl}phenyl)-Nα-(methoxycarbonyl)-L-phenylalaninamide], the IC50 was determined as 9.4 nM.

In the case of `COc1ccc([C@H](c2ccc(Cl)cc2)[C@H](N)C(=O)Nc2cccc(F)c2CC[C@H]2CNCC(C)N2S(=O)(=O)C2CC2)cn1` (stereo in doubt) [Example 152, (βS)-4-chloro-N-(2-{2-[(2S,6S)-1-(cyclopropylsulfonyl)-6-methylpiperazin-2-yl]ethyl}-3-fluorophenyl)-β-(6-methoxypyridin-3-yl)-L-phenylalaninamide], the IC50 was 39 nM.

As to `N[C@H](C(=O)Nc1cncc(F)c1CC[C@H]1CNCCN1S(=O)(=O)c1ccccc1)C1(c2ccc(Cl)cc2)CCOCC1` [Example 70, (2S)-2-amino-2-[4-(4-chlorophenyl)tetrahydro-2H-pyran-4-yl]-N-(5-fluoro-4-{2-[(2S)-1-(phenylsulfonyl)piperazin-2-yl]ethyl}pyridin-3-yl)ethanamide], the IC50 came out at 27 nM.

On to `COC(=O)N[C@H](C(=O)NC1CCCC1CC[C@H]1CNCCN1S(=O)(=O)c1ccccc1)C(c1ccc(Cl)cc1)C1CCOCC1` (stereo partly drawn) [Example 356, methyl ((1R,2S)-1-(4-chlorophenyl)-3-oxo-3-((2-(2-((S)-1-(phenylsulfonyl)piperazin-2-yl)ethyl)cyclopentyl)amino)-1-(tetrahydro-2H-pyran-4-yl)propan-2-yl)carbamate], for which the IC50 was determined as 28 nM.
